Reference: PMC11938014, “Development and Application of Small Molecule–Peptide Conjugates as Cathepsin K-Specific Covalent Irreversible Inhibitors in Human Osteoclast and Lung Cancer” (JACS Au, 2025)

How the values were obtained:
[1] = system: IL-4-induced macrophage cells; test: Residual cathepsin activity in IL-4-induced macrophages lacking CTSK (GB123 gel); type: cell-based, mouse; details: 5 μM, 2 h, then GB123
Method: Human and mouse CTSK species have a high degree of structural commonality. […] Therefore, to investigate the inhibitors’ cross-reactivity with mouse CTSK, mouse OCs were cultivated with mouse bone marrow cells stimulated with M-CSF and RANKL for 9–10 days. In addition, control cells differentiated into macrophages that highly express active cathepsins but not CTSK and were generated by treatment with M-CSF and IL-4.[49] Both intact OC and macrophage cells were incubated for 2 h with GD20, vehicle, or ODN, followed by a 2 h incubation with pan-cathepsin probe GB123. The CTSK-specific fluorescent band near 25 kDa disappeared in cells treated with GD20, whereas the other competing band remained unaltered (Figure 7a). Mice OS samples were blotted to identify the different cathepsins in the sample (Figure S9b).
Figure 7 CTSK inhibition in mice osteoclasts. (a) Activity and expression of CTSK in mouse OCs were assessed in the presence of indicated inhibitors. Intact OCs were treated for 2 h with 5 μM inhibitor in the culture medium, followed by 2 h of labeling of residual enzyme activity by GB123. Samples were analyzed by SDS-PAGE and scanned for fluorescence with a Typhoon scanner at 635/670 nm. Western blot with anti-CTSK is shown aside. […] Samples were analyzed by SDS-PAGE and scanned for fluorescence with a Typhoon scanner at 635/670 nm. […]

[2] = molecular target: T1, endogenous cathepsin K in human osteoclasts (Homo sapiens, UniProt P43235); test: Fluorescence microscopy of CTSK inhibition in human osteoclasts; type: cell-based; details: human OC, 3 μM, 2 h; for fluorescence signal of pan-cathepsin probe GB123: then GB123 2 h; for CTSK activity labeled by GD32 probe: then GD32 8 h
T1 construct: endogenous in cells; host or cells: primary human osteoclasts differentiated from blood monocytes with M-CSF and RANKL
T1 sequence (P43235 115-329): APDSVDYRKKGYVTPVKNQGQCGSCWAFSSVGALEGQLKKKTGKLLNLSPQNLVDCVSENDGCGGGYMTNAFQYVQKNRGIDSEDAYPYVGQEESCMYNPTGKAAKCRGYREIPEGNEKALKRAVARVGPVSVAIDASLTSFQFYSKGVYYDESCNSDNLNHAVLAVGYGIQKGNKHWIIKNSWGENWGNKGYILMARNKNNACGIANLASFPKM
Method: (§1) We next corroborated CTSK-specific inhibition by fluorescence microscopy studies of OC. Human OC were grown on 8-well plates; the intact cells were treated with either of the CTSK inhibitors or with the vehicle and then with the CTSK-specific fluorescent ABP GD32.[19] The fluorescence microscopy pictures were acquired following cell fixation, which permitted imaging and evaluating CTSK activity and inhibition in cells. […] As the inhibitors are specific to CTSK, they could not block the fluorescence signals of GB123 associated with other cathepsins (B, L, S) (Figure 8b).
(§2) Figure 8 Detection of inhibition of endogenous cathepsin K in intact cells by fluorescence microscopy. Enriched human monocytes from peripheral blood mononuclear cells (PBMC) were isolated from healthy donors’ blood and were treated for 14 days with M-CSF and RANKL or M-CSF alone, as indicated. Osteoclast cells were treated with vehicle (DMSO) or indicated inhibitors [3 μM] in a culture medium for 2 h, followed by incubation with (a) GD32 (a specific CTSK ABP) for 8 h or (b) GB123 for 2 h. Similar to those described in panel (a), cultures of U2-OS cells (c) and U-87 MG cells (d) were grown in 8-well chambers. Cells were pretreated with either the DMSO or [3 μM] of indicated specific CTSK inhibitors for 2 h and then labeled by the addition of 1.25 μM GD32 to the culture medium for 24 h (U2-OS) or 2 h (U-87 MG). After fixation, cells were stained with 4′,6-diamidino-2-phenylindole (DAPI) (nucleus), and images were captured by confocal microscopy.
Cells were seeded in 8-well chambers and then treated with an inhibitor or vehicle for 2 h. Cells were then labeled with the indicated probes for the indicated times and then washed with PBS, fixed with cold methanol, and mounted with DAPI-Fluoromount-G (SouthernBiotech, 0100-20) before visualization by confocal microscopy. Zeiss Confocal LSM 980 Microscope with Zen software was used with Airyscan (Germany).

[3] = molecular target: T2, CTSK in U2-OS and U-87 MG cells (Homo sapiens, UniProt P43235); test: Fluorescence microscopy of CTSK inhibition in cell lines (GD32 probe); type: cell-based; details: 3 μM, 2 h
T2 construct: endogenous in cells; host or cells: U2-OS and U-87 MG
T2 sequence (P43235 115-329): T1 sequence (P43235 115-329)
Method: as §1
as §2, with “After fixation, cells were stained with 4′,6-diamidino-2-phenylindole (DAPI) (nucleus), and images were captured by confocal microscopy.” left out

Structure (SMILES) | inhibition of cathepsin bands in macrophages that lack CTSK [1] | fluorescence signal of pan-cathepsin probe GB123 [2] | CTSK activity labeled by GD32 probe [2] | CTSK activity labeled by GD32 probe [3]
CC(C)C[C@H](N[C@@H](c1ccc(-c2ccc(S(C)(=O)=O)cc2)cc1)C(F)(F)F)C(=O)NCC(=O)COC(=O)[C@@H]1CCCN1C(=O)[C@H](CC(C)C)NC(=O)OCC1c2ccccc2-c2ccccc21 [GD20] | lack of inhibition of any band | only a partial reduction | completely abolished CTSK activity | block CTSK activity
CC(C)C[C@H](N[C@@H](c1ccc(-c2ccc(S(C)(=O)=O)cc2)cc1)C(F)(F)F)C(=O)NCC(=O)COC(=O)[C@@H]1CCCN1C(=O)[C@H](CCC(N)=O)NC(=O)OCC1c2ccccc2-c2ccccc21 [GD38] | – | only a partial reduction | completely abolished CTSK activity | block CTSK activity
